# Source: publication PMC6576746, “Rational discovery of dual-indication multi-target PDE/Kinase inhibitor for precision anti-cancer therapy using structural systems pharmacology” (PLoS Computational Biology, 2019)
# Columns and labels:
# Assay in all cases: biochemical
# Design in all cases: DiscoverX KinomeScan competition binding assay across human kinases; per cent of control at 10 and 100 uM
# CDK5 = CDK5 (Homo sapiens, UniProt Q00535); details: competition binding, % of control; read-out: Percent Control (100 uM Levosimendan)
# Method: (§1) To validate our computational predictions, we employed a competition binding assay to detect the binding of levosimendan to 425 human kinases as well as its dose-response curve to RIOK1. The proprietary KinomeScan assay was performed by DiscoverX (Fremont, California, USA). The tests were performed at 10 μM and 100 μM concentrations of levosimendan, respectively. Assay results were reported as %control, calculated as follows: %control=(TestCompoundSignal−PositiveControlSignal)/(NegativeControlSignal−PositiveControlSignal)×100 KinomeScan assay across 452 human kinases verified our computational prediction (S1 Table). RIOK1 is one of the strongest inhibited kinases by levosimendan. The percentage control of RIOK1 is 15.0 and 0.0 under the treatment of 10 μM and 100 μM of levosimendan, respectively. […] The percentage controls of five kinases: FLT3, MAP2K5, PIP5K1A, GAK, and KIT are less than 30.0 under the treatment of both 10 μM and 100 μM of levosimendan. Both FLT3 and KIT are tyrosine protein kinases. Their inhibitors have recently been approved for the treatment of Acute Myeloid Leukemia and other types of cancers, but a combination therapy is needed to overcome rapidly emerged drug resistance, thus improve patients’ drug responses. Other kinases inhibited by levosimendan belong to serine/threonine protein kinase family (RIOK1, RIOK3, GAK, and MAP2K5) and lipid kinase family (PIP5K1A). […] As a result, levosimendan may modulate different cancer pathways from those by the tyrosine protein kinase inhibitors, and it could be a novel lead compound for a new anti-cancer therapy to overcome drug resistance of existing drugs or to target different types of cancers through polypharmacology or drug combination.
# PIP5K1A = PIP5K1A (Homo sapiens, UniProt Q99755); details: competition binding, % of control
# Method: as §1
# CDC2L5 = target: T1, CDC2L5 (Homo sapiens, UniProt Q14004); details: competition binding, % of control; read-out: Percent Control (100 uM Levosimendan)
# T1 construct: gene CDK13
# Method: as §1
# MAPKAPK5 = MAPKAPK5 (Homo sapiens, UniProt Q8IW41); details: competition binding, % of control; read-out: Percent Control (100 uM Levosimendan)
# Method: as §1
# CLK3 = CLK3 (Homo sapiens, UniProt P49761); details: competition binding, % of control; read-out: Percent Control (100 uM Levosimendan)
# Method: as §1
# MST2 = target: T2, MST2 (Homo sapiens, UniProt Q13188); details: competition binding, % of control; read-out: Percent Control (100 uM Levosimendan)
# T2 construct: gene STK3
# Method: as §1
# MEK5 = target: T3, MEK5 (Homo sapiens, UniProt Q13163); details: competition binding, % of control
# T3 construct: gene MAP2K5
# Method: as §1
# [1] = target: T4, JAK1(JH2domain-pseudokinase) (Homo sapiens, UniProt P23458); details: competition binding, % of control
# T4 construct: JH2domain-pseudokinase
# Method: as §1
# EGFR(G719C) = EGFR(G719C) (Homo sapiens, UniProt P00533, G719C); details: competition binding, % of control
# Method: as §1
# PIK4CB = target: T5, PIK4CB (Homo sapiens, UniProt Q9UBF8); details: competition binding, % of control; read-out: Percent Control (100 uM Levosimendan)
# T5 construct: gene PI4KB
# Method: as §1
# [2] = target: T6, TYK2(JH2domain-pseudokinase) (Homo sapiens, UniProt P29597); details: competition binding, % of control
# T6 construct: JH2domain-pseudokinase
# Method: as §1
# MAPKAPK2 = MAPKAPK2 (Homo sapiens, UniProt P49137); details: competition binding, % of control; read-out: Percent Control (100 uM Levosimendan)
# Method: as §1
# MYLK = MYLK (Homo sapiens, UniProt Q15746); details: competition binding, % of control
# Method: as §1
# FLT3 = FLT3 (Homo sapiens, UniProt P36888); details: competition binding, % of control
# Method: as §1
# EPHB4 = EPHB4 (Homo sapiens, UniProt P54760); details: competition binding, % of control; read-out: Percent Control (100 uM Levosimendan)
# Method: as §1
# MYO3A = MYO3A (Homo sapiens, UniProt Q8NEV4); details: competition binding, % of control; read-out: Percent Control (100 uM Levosimendan)
# Method: as §1
# TIE2 = target: T7, TIE2 (Homo sapiens, UniProt Q02763); details: competition binding, % of control; read-out: Percent Control (100 uM Levosimendan)
# T7 construct: gene TEK
# Method: as §1
# PHKG1 = PHKG1 (Homo sapiens, UniProt Q16816); details: competition binding, % of control; read-out: Percent Control (100 uM Levosimendan)
# Method: as §1
# [3] = read-out: Percent Control (10 uM Levosimendan)
# [4] = read-out: Percent Control (100 uM Levosimendan)
# Chain of FLT3 (P36888 whole entry): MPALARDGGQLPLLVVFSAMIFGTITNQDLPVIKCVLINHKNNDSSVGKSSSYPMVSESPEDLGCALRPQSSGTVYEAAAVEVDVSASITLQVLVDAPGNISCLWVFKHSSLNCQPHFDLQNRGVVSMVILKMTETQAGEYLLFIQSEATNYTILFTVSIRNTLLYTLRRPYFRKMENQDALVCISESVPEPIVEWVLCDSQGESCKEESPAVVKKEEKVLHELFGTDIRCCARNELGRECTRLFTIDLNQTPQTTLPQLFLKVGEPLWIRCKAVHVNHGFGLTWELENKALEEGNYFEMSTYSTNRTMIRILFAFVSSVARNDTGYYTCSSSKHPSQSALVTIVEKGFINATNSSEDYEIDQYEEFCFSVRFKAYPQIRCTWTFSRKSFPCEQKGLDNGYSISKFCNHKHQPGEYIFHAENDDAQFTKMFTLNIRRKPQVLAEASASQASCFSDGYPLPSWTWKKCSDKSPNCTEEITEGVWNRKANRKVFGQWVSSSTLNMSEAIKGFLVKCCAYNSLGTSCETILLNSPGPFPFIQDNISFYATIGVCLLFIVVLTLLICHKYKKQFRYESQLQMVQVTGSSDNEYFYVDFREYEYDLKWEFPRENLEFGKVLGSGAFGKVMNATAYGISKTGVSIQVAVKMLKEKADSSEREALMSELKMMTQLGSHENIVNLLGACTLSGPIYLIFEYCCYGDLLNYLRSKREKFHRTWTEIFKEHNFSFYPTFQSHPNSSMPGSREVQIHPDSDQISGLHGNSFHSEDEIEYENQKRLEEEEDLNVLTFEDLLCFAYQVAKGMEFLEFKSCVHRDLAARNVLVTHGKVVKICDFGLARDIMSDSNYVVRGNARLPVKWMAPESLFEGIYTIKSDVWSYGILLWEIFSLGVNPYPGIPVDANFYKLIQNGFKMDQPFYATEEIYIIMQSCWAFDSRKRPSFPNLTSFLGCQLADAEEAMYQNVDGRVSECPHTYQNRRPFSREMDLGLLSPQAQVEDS
# T3 sequence (Q13163 whole entry): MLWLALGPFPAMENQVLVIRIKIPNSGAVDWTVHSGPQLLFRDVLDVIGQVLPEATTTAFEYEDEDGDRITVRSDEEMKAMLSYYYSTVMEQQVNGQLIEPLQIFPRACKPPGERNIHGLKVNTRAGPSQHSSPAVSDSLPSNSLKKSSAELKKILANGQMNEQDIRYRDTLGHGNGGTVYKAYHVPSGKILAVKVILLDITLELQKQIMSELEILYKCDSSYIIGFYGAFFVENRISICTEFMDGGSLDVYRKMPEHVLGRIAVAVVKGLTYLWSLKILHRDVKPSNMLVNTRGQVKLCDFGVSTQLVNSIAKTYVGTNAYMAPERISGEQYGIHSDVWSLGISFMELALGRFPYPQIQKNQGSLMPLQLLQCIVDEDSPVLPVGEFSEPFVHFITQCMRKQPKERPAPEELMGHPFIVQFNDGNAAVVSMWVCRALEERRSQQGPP
# Chain of EGFR(G719C) (P00533 whole entry G719C): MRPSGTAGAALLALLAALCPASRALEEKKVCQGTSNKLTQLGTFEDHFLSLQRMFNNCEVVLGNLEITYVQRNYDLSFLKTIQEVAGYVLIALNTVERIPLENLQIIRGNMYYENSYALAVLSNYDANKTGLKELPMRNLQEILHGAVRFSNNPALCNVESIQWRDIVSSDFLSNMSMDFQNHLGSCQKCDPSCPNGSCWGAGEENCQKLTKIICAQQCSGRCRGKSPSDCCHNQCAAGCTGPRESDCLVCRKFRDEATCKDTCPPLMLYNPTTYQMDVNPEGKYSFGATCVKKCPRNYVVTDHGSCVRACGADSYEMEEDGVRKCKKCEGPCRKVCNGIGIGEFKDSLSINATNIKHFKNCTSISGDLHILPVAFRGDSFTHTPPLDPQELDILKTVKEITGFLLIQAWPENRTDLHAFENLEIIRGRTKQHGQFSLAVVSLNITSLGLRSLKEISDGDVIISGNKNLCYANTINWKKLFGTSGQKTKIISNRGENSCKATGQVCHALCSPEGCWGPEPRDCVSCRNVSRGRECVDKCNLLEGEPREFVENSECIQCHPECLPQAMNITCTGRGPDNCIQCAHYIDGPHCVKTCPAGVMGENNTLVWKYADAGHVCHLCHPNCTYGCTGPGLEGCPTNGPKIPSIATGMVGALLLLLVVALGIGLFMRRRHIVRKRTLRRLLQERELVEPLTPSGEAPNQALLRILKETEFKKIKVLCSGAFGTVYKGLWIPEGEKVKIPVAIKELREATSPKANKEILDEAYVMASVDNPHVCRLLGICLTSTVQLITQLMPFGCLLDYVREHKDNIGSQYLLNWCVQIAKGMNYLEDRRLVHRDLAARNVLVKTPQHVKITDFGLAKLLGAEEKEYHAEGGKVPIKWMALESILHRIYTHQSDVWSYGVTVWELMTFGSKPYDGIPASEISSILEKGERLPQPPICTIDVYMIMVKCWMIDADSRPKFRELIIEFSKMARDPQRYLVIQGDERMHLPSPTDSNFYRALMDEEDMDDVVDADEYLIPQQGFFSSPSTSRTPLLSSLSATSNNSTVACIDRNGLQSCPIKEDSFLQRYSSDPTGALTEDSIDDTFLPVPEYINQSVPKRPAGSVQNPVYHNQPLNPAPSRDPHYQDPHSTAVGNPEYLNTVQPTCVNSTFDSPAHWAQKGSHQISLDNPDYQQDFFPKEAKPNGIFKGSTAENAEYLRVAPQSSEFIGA
# Chain of PIP5K1A (Q99755 whole entry): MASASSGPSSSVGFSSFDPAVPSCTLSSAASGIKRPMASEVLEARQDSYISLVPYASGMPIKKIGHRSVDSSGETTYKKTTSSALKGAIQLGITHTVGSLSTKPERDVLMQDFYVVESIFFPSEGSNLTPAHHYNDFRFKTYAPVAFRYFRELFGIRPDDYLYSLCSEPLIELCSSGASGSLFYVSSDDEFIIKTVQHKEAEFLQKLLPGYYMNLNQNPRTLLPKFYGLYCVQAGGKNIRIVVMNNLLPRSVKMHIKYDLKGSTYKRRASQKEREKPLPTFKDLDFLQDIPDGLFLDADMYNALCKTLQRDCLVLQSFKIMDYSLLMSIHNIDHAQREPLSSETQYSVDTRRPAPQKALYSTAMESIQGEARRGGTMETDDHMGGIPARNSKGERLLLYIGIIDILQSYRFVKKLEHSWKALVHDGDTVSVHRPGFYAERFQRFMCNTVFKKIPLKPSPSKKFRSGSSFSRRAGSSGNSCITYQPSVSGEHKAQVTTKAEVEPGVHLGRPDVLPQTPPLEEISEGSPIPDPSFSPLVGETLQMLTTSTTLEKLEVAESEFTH
# Chain of MYLK (Q15746 whole entry): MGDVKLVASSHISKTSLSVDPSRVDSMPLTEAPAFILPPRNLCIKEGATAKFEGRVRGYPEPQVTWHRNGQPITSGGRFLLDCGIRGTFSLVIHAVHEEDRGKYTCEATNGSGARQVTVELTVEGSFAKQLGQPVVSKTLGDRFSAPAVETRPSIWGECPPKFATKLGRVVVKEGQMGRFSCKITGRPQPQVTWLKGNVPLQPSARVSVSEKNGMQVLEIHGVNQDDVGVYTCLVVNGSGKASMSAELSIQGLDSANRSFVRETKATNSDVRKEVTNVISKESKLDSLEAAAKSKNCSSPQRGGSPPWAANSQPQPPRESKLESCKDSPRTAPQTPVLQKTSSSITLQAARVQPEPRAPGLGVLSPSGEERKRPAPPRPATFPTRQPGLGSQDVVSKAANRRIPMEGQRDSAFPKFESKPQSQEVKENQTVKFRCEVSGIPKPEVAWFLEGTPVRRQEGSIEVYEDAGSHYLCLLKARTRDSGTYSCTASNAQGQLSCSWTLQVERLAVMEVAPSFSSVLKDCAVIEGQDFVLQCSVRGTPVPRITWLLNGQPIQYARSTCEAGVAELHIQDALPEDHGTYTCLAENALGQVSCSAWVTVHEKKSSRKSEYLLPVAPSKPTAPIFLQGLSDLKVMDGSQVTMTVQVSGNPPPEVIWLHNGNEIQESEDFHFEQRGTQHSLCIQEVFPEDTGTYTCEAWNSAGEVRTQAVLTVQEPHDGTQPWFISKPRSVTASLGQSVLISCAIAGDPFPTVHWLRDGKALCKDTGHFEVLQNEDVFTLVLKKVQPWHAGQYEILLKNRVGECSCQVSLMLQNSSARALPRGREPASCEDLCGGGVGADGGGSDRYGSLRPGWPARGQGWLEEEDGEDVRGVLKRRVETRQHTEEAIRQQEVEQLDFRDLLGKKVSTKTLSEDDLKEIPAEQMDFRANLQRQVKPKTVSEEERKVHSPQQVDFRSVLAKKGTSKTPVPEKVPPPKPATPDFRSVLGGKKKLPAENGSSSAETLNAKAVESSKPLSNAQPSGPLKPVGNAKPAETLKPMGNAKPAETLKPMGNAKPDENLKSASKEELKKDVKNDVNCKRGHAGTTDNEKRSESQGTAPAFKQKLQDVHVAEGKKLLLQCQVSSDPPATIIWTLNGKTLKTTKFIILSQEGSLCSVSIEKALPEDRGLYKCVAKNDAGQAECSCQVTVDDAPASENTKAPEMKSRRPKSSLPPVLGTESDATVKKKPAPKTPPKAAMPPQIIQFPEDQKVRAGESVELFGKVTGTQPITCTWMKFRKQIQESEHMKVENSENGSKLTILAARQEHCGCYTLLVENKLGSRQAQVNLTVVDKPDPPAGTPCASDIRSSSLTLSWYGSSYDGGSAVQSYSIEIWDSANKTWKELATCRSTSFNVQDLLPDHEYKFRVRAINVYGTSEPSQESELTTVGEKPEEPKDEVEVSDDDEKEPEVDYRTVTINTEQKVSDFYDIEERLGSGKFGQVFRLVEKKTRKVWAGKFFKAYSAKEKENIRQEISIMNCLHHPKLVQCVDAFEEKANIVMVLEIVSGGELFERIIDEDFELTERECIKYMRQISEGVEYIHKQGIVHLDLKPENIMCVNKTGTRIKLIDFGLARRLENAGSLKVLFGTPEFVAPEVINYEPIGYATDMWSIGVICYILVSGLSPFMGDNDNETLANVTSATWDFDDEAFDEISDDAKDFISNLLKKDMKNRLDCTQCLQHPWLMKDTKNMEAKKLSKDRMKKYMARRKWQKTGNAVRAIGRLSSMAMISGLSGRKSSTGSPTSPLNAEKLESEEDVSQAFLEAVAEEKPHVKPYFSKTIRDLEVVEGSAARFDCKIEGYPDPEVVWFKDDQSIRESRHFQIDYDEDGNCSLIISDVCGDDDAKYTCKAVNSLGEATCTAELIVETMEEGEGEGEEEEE
smiles,measurement,setting,value
C[C@@H]1CC(=O)NN=C1c1ccc(NN=C(C#N)C#N)cc1 [levosimendan],remaining binding at 100 µM,CDK5,100%
same,remaining binding at 10 µM,PIP5K1A; [3],22%
same,remaining binding at 100 µM,PIP5K1A; [4],6.2%
same,remaining binding at 100 µM,CDC2L5,100%
same,remaining binding at 100 µM,MAPKAPK5,100%
same,remaining binding at 100 µM,CLK3,68%
same,remaining binding at 100 µM,MST2,100%
same,remaining binding at 10 µM,MEK5; [3],17%
same,remaining binding at 100 µM,MEK5; [4],2.6%
same,remaining binding at 10 µM,[1]; [3],30%
same,remaining binding at 100 µM,[1]; [4],7.2%
same,remaining binding at 10 µM,EGFR(G719C); [3],49%
same,remaining binding at 100 µM,EGFR(G719C); [4],10%
same,remaining binding at 100 µM,PIK4CB,100%
same,remaining binding at 10 µM,[2]; [3],100%
same,remaining binding at 100 µM,[2]; [4],11%
same,remaining binding at 100 µM,MAPKAPK2,100%
same,remaining binding at 10 µM,MYLK; [3],38%
same,remaining binding at 100 µM,MYLK; [4],32%
same,remaining binding at 10 µM,FLT3; [3],24%
same,remaining binding at 100 µM,FLT3; [4],0.9%
same,remaining binding at 100 µM,EPHB4,85%
same,remaining binding at 100 µM,MYO3A,97%
same,remaining binding at 100 µM,TIE2,78%
same,remaining binding at 100 µM,PHKG1,89%
